Test results taken from patent publication US20090220996A1, “In vitro Assay Methods for Classifying Embryotoxicity of Compounds” (RELIANCE LIFE SCIENCES PVT LTD., priority 2007, published 2009).

Assays:
[1] = tested on: hES, hEBs and HFF; test: CyQUANT/survival cytotoxicity, cell type not given; type: cell-based, human; conditions: cell type not stated; for cell survival: CyQUANT
Procedure: Cytotoxicity analysis of three cell types (hES, hEBs and HFF) was evaluated using the CyQUANT assay following compound treatment. All data were the mean of three independent experiments for each cell type. Data is represented as the mean±SE.

[2] = tested on: 3T3 (mouse fibroblast cell line); conditions: Table 4; from the EST (Genschow, et al., 2000); cited from earlier work
[3] = Table 5; cited from earlier work

## COc1ccc2c(c1)c(CC(=O)O)c(C)n2C(=O)c1ccc(Cl)cc1 [Indomethacin, indomethacin]
[1]; 100 μg/ml, FIG. 4D
  cell survival: 20-30%
[2]
  Mouse EST IC50 - 3T3: 27 µg/mL
[3]
  General toxicity: Cardiac, Renal

## Cn1c(=O)c2c(ncn2C)n(C)c1=O [Caffeine, caffeine]
[1]; 50 μg/ml, FIG. 3B
  cell survival percentage compared to controls: significant decrease
[1]; 500 μg/ml, FIG. 4C
  cell survival: 20%
[3]
  General toxicity: Cardiac, CNS

## CS(=O)(=O)OCCCCOS(C)(=O)=O [Busulfan, busulfan]
[2]
  Mouse EST IC50 - 3T3: 4.8 µg/mL
[3]
  Effects on fetus: Reproductive
  General toxicity: Hematopoietic

## NC(=O)NO [Hydroxyurea, hydroxyurea]
[2]
  Mouse EST IC50 - 3T3: 7.2 µg/mL

## CC1(C)S[C@@H]2[C@H](NC(=O)Cc3ccccc3)C(=O)N2[C@H]1C(=O)O [Penicillin G, penicillin G]
[2]
  Mouse EST IC50 - 3T3: 1586 µg/mL
[3]
  Effects on fetus: None in Humans
  General toxicity: Hypersensitivity
